# Values of other authors in patent US8470984B2, “Process for the preparation of morpholinyl anthracycline derivatives” (Nerviano Medical Sciences S.R.L., priority 2010, dated 2013).
smiles,measurement,setting,value
"COc1cccc2c1C(=O)c1c(O)c3c(c(O)c1C2=O)C[C@@](O)(C(=O)CO)C[C@@H]3O[C@H]1C[C@H]2[C@H](O[C@@H]3[C@@H](OC)OCCN32)[C@H](C)O1 [compound 1, 3′-deamino-3″-4′-anhydro-[2″(S)-methoxy-3″(R)-hydroxy-4″-morpholinyl]doxorubicin]",efficacy in in vivo tumor models,tumor models,effective in in vivo tumor models
same,cytotoxicity in vitro relative to nemorubicin and doxorubicin,,more cytotoxic than nemorubicin and doxorubicin
